Literature values as cited in patent US11179353B1, “Composition and method for prevention and treatment of radiation dermatitis” (Rythera Therapeutics, Inc., priority 2020, dated 2021).

Tests used:
radiation skin damage = settings: retrospective analysis
irradiated breast tissue = settings: topical

Row | SMILES | dermato-cytoprotective effects (radiation skin damage) | improvement in the results of irradiated breast tissue (irradiated breast tissue)
1 | NCCCNCCSP(=O)(O)O [amifostine] | significant dermato-cytoprotective effects | 
2 | O=C1O[C@H]([C@@H](O)CO)C(O)=C1O [Vitamin C] |  | without improvement
